Experimental data published in patent US7358249B2, “Heterocyclic compounds having inhibitory activity against HIV integrase” (Shionogi & Co., Ltd., priority 2002, dated 2008).

Columns and labels:
HIV integrase = HIV integrase (Human immunodeficiency virus type 1 group M subtype B, UniProt P04585); assay: integrase inhibition assay (microtiter plate, substrate DNA / target DNA); format: biochemical; settings: integrase 30 pmol, incubated at 30° C. for 1 hour, OD at 405 nm, concentration at percent inhibition 50%; for IC50: read-out: MIA, IC50 (ug/ml) (converted)
Description: The inhibitory activities against integrase of the presnt compounds were determined by the assay described below.
(1) Preparation of DNA Solutions
Substrate DNA and target DNA synthesized by Amersham Pharmacia Biotech, which sequences were indicated below, were dissolved in KTE buffer (composition: 100 mM KCl, 1 mM EDTA, 10 mM Tris-HCl (pH 7.6)) at a concentration of 2 pmol/μl and 5 pmol/μl, respectively. The DNA solutions were heated and then slowly cooled so that they were annealed with each complement.
(Sequence of Substrate DNA)
(2) Calculations of the percent inhibitions (IC50 values of test compounds)
Streptavidin, obtained from Vector Laboratories, was dissolved in 0.1 M carbonate buffer (composition: 90 mM Na2CO3, 10 mM NaHCO3) at a concentration of 40 μg/ml. After coating each well of microtiter plates (obtained from NUNC) with 50 μl of the above solution at 4° C. over night, each well was washed twice with PBS (composition: […], 0.27 mM KCl, 0.43 mM Na2HPO4, 0.14 mM KH2PO4) and blocked with 300 μl of 1% skim milk in PBS for 30 min. Additionally, each well was washed twice with PBS and added with 50 μl of the substrate DNA solution (2 pmol/μl). The microtiter plates were kept at room temperature for 30 min. Then, each well was washed twice with PBS and once with H2O.
Subsequently, to the each well prepared above were added 45 μl of the reaction buffer prepared from 12 μl of the buffer (composition: 150 mM MOPS (pH 7.2), 75 mM MnCl2, 50 mM 2-mercaptoethanol, 25% glycerol, 500 μg/ml bovine serum albumin-fraction V), 1 μl of target DNA (5 pmol/μ), and 32 μl of the distilled water. Additionally, 6 μl of either a test compound in DMSO or DMSO for positive control (PC) was mixed with the above reaction buffer, then 9 μl of an integrase solution (30 pmol) was added thereto and the mixture was mixed well. To the well of negative control (NC) was added 9 μl of the integrase dilution buffer (composition: 20 mM MOPS (pH7.2), 400 mM potassium glutamate, 1 mM EDTA, 0.1% NP-40, 20% glycerol, 1 mM DTT, 4 M urea).
The microtiter plates were incubated at 30° C. for 1 hour. The reaction solution was removed and each well was washed twice with PBS. Subsequently, each well of the microtiter plates was filled with 100 μl of anti-digoxigenin antibody labeled with alkaline phosphatase (Sheep Fab fragment: obtained from Boehringer) and incubated at 30° C. for 1 hour. Then, each well was washed twice with 0.05% Tween20 in PBS and once with PBS. Next, 150 μl of the Alkaline phosphatase reaction buffer (composition: 10 mM p-Nitrophenylphosphate (obtained from Vector Laboratories), 5 mM MgCl2, 100 mM NaCl, 100 mM Tris-HCl (pH 9.5)) was added to each well. The microtiter plates were incubated at 30° C. for 2 hours and the reaction was terminated by the addition of 50 μl of 1 N NaOH solution. The optical density (OD) at 405 nm of each well was measured and the percent inhibition was determined by the following expression. The percent inhibition (%)=100[1−{(C abs.−NC abs.)/(PC abs.−NC abs.)}]
C abs.; the OD of the well of the test compound
NC abs.: the OD of the negative control (NC)
PC abs.: the OD of the positive control (PC)
When the percent inhibition (%) is X % at a concentration of x μg/ml and the percent inhibition (%) is Y % at a concentration of y μg/ml, one of which is more than 50% and the other is less than 50%, IC50 can be determined by the following expression. IC50 (μg/ml)=x−{(X−50)(x−y)/(X−Y)}
Compound No. in the Table 1 is the same as compound No. of the above Examples.

Structure (SMILES) | melting point | IC50 (HIV integrase) | MIA, IC50 (HIV integrase)
COC(=O)c1ncc2cc(Cc3ccc(F)cc3)cnc2c1O [Compound A-2, Methyl 3-(4-fluorobenzyl)-8-hydroxy-1,6-naphthylidine-7-carboxylate] | 218 to 219 °C | 416 nM | 
COC(=O)c1nc(NS(C)(=O)=O)c2cc(Cc3ccc(F)cc3)cnc2c1O [Compound A-9, Methyl 3-(4-fluorobenzyl)-8-hydroxy-5-methanesulfonylamino-1,6-naphthylidine-7-carboxylate] | 205 to 210 °C | 222 nM | 
COC(=O)c1nc(NC(C)=O)c2cc(Cc3ccc(F)cc3)cnc2c1O [Compound A-10, Methyl 5-acetylamino-3-(4-fluorobenzyl)-8-hydroxy-1,6-naphthylidine-7-carboxylate] | 263 to 267 °C | 379 nM | 
COC(=O)c1nc(C(=O)OC)c2cc(Cc3ccc(F)cc3)cnc2c1O [Compound A-15, Dimethyl 3-(4-fluorobenzyl)-8-hydroxy-1,6-naphthylidine-5,7-dicarboxylate] | 191 to 194 °C | 783 nM | 
COC(=O)c1nc(C#CCO)c2cc(Cc3ccc(F)cc3)cnc2c1O [Compound A-18, Methyl 3-(4-fluorobenzyl)-8-hydroxy-5-(3-hydroxy-1-propynyl)-1,6-naphthylidine-7-carboxylate] | 205 to 208 °C | 655 nM | 
CCC(=O)c1ncc2cc(Cc3ccc(F)cc3)cnc2c1O [Compound A-19, 1-[3-(4-fluorobenzyl)-8-hydroxy-1,6-naphthylidin-7-yl]propan-1-one] |  |  | 0.12 µg/mL
COC(=O)c1nc(N2CCCCS2(=O)=O)c2cc(Cc3ccc(F)cc3)cnc2c1O [Compound A-22, Methyl 3-(4-fluorobenzyl)-5-(1,1-dioxido-1,2-thiazinan-2-yl)-8-hydroxy-1,6-naphthylidine-7-carboxylate] |  | 427 nM | 
COC(=O)c1nc(NS(=O)(=O)N(C)C)c2cc(Cc3ccc(F)cc3)cnc2c1O [Compound A-26, Methyl 5-[(dimethylamino)sulfonyl]-amino-3-(4-fluorobenzyl)-8-hydroxy-1,6-naphthylidine-7-carboxylate] | 159 to 160 °C | 345 nM | 
COCCC(=O)Nc1nc(C(=O)OC)c(O)c2ncc(Cc3ccc(F)cc3)cc12 [Compound A-34, 3-(4-Fluorobenzyl)-8-hydroxy-5-(3-methoxy-1-propionyl)amino[1,6]naphthylidine-7-carboxylic acid methyl ester] | 205 to 206 °C | 701 nM | 
CCOC(=O)Nc1nc(C(=O)OC)c(O)c2ncc(Cc3ccc(F)cc3)cc12 [Compound A-42, 5-[(Ethoxycarbonyl)amino]-3-(4-fluorobenzyl)-8-hydroxy[1,6]naphthylidine-7-carboxylic acid methyl ester] | 247 to 249 °C | 576 nM | 
COC(=O)c1nc(C#CCNS(C)(=O)=O)c2cc(Cc3ccc(F)cc3)cnc2c1O [Compound A-50, 3-(4-Fluorobenzyl)-8-hydroxy-5-[3-(methanesulfonyamino)propyn-1-yl][1,6]naphthylidine-7-carboxylic acid methyl ester] | 223 to 225 °C | 248 nM | 
COC(=O)c1nc(C(=O)N2CCN(C)CC2)c2cc(Cc3ccc(F)cc3)cnc2c1O [Compound A-54, 5-(4-Methylpiperadine-1-carbonyl)-3-(4-fluorobenzyl)-8-hydroxy[1,6]naphthylidine-7-carboxylic acid methyl ester] | 226 to 227 °C | 1300 nM | 
COC(=O)c1nc(NC(=O)c2ccco2)c2cc(Cc3ccc(F)cc3)cnc2c1O [Compound A-66, 3-(4-Fluorobenzyl)-5-(frane-2-carbonyl)amino-8-hydroxy[1,6]naphthylidine-7-carboxylic acid methyl ester] | 200 to 202 °C | 688 nM | 
COCC(C)OC(=O)c1ncc2cc(Cc3ccc(F)cc3)cnc2c1O (stereo not drawn) [Compound A-79, 3-(4-Fluorobenzyl)-8-hydroxy[1,6]naphthylidine-7-carboxylic acid [2-(1-methoxy)propyl]ester] | 130 to 131 °C | 351 nM | 
CC(=O)N1CCC(OC(=O)c2ncc3cc(Cc4ccc(F)cc4)cnc3c2O)CC1 [Compound A-82, 3-(4-Fluorobenzyl)-8-hydroxy[1,6]naphthylidine-7-carboxylic acid 1-acetylpiperidine-4-yl ester] | 163 to 165 °C | 260 nM | 
CNC(=O)c1nc(C#CCO)c2cc(Cc3ccc(F)cc3)cnc2c1O [Compound A-98, 3-(4-Fluorobenzyl)-8-hydroxy-5-(3-hydroxy-1-propyn-1-yl)-[1,6]naphthylidine-7-carboxylic acid methyl amide] | 185 °C | 520 nM | 
COC(=O)c1nc(NC(=O)C(=O)N(C)C)c2cc(Cc3ccc(F)cc3)cnc2c1O [Compound A-115, 5-[[(Dimethylamino)oxalyl]amino]-3-(4-fluorobenzyl)-8-hydroxy[1,6]naphthylidine-7-carboxylic acid methyl ester] |  | 422 nM | 
COC(=O)c1cc(C(=O)O)c2cc(Cc3ccc(F)cc3)cnc2c1O [Compound I-3, 3-(4-Fluorobenzyl)-8-hydroxy-quinoline-5,7-dicarboxylic acid 7-methylester] | 237 to 239 °C | 394 nM | 
O=C(O)c1cc(C(=O)O)c2cc(Cc3ccc(F)cc3)cnc2c1O [Compound I-4, 3-(4-Fluorobenzyl)-8-hydroxyquinoline-5,7-dicarboxylic acid] | 279 to 282 °C | 352 nM | 
COC(=O)c1cc(C(=O)NCCO)c2cc(Cc3ccc(F)cc3)cnc2c1O [Compound I-5, 3-(4-Fluorobenzyl)-8-hydroxy-5-(2-hydroxyethylcarbamoyl)quinoline-7-carboxylic acid methylester] | 207 to 208 °C | 502 nM | 
COCCNC(=O)c1cc(C(=O)OC)c(O)c2ncc(Cc3ccc(F)cc3)cc12 [Compound I-6] | 152 to 154 °C | 412 nM | 
NC(=O)c1cc(C(=O)O)c(O)c2ncc(Cc3ccc(F)cc3)cc12 [Compound I-7, 5-Carbamoyl-3-(4-fluorobenzyl)-8-hydroxyquinoline-7-carboxylic acid] | 265 to 266 °C | 705 nM | 
COC(=O)c1cc(NC=O)c2cc(Cc3ccc(F)cc3)cnc2c1O [Compound I-13, 3-(4-Fluorobenzyl)-5-formylamino-8-hydroxyquinoline-7-carboxylic acid methyl ester] |  | 1040 nM | 
COC(=O)c1cc(C(=O)N2CCOCC2)c2cc(Cc3ccc(F)cc3)cnc2c1O [Compound I-26, (4-Fluorobenzyl)-8-hydroxy-5-(morpholine-4-carbonyl)quinoline-7-carboxylic acid methyl ester] |  |  | 0.37 µg/mL
COC(=O)c1cc(C(=O)NC(C)C(=O)OC)c2cc(Cc3ccc(F)cc3)cnc2c1O (stereo not drawn) [Compound I-54, (4-Fluorobenzyl)-8-hydroxy-5-(1-methoxycarbonylethylcarbamoyl)quinoline-7-carboxylic acid methyl ester] |  |  | 0.38 µg/mL
COC(=O)c1cc(C(=O)NCCCO)c2cc(Cc3ccc(F)cc3)cnc2c1O [Compound I-58, 3-(4-Fluorobenzyl)-8-hydroxy-5-(3-hydroxypropylcarbamoyl)quinoline-7-carboxylic acid methyl ester] |  | 388 nM | 
